These compounds were tested against T1, His tagged full-length PTPN1 protein (Homo sapiens, UniProt P18031) (assay: Mobility shift assay (MSA) to determine potency of PTPN1 inhibitors). Details: 0.5 nM enzyme, 2 μM substrate.
T1 construct: made in house
T1 sequence (P18031 with tags, fused parts or gaps): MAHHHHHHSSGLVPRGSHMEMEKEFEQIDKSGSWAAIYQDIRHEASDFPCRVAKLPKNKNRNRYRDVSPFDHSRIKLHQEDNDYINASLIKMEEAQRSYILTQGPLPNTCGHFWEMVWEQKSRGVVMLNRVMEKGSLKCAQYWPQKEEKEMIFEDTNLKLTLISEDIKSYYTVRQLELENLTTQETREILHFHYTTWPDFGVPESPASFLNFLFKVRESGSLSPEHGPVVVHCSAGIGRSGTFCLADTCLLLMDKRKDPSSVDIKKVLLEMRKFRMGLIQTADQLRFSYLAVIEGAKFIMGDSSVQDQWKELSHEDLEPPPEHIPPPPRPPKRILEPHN
Type: biochemical
Procedure: Compound activity was determined using in house His tagged full-length PTPN1 protein (SEQ ID NO: 3) in an in vitro enzymatic reaction. The enzymatic assay used to determine activity is a mobility shift assay using a LabChip EZ Reader by Caliper Life Sciences. The enzymatic reaction was carried out in assay buffer (50 mM HEPES pH 7.5, 1 mM EGTA, 10 mM EDTA. 0.01% Tween® 20, and 2 mM DTT). The compounds were dispensed on a white 384 well ProxiPlate™ (PerkinElmer Cat #6008289) plate using a Labcyte Echo® liquid handler at varying concentrations (12 point, 1:3 dilution). The enzyme (at 0.5 nM) was incubated with compound for 10 minutes at room temperature. Then the substrate (phosphorylated insulin receptor probe sequence: ((OG488)-(NH—CH2—CH2—O—CH2—CH2—O—CH2—CO)-T-R-D-I-(PY)-E-T-D-Y—Y—R—K—K—NH2) (SEQ ID NO: 2) was added at 2 μM to the plates and incubated for another 10 minutes at room temperature. Finally, a quench solution (water and 4-bromo-3-(2-oxo-2-propoxyethoxy)-5-(3-{[1-(phenylmethanesulfonyl)piperidin-4-yl]amino}phenyl)thiophene-2-carboxylic acid) was added to the plates, which were then run on the EZ Reader (excitation 488 nm, emission 530 nm) to measure % conversion (the amount of phosphorylated substrate which was de-phosphorylated by PTPN1). […] The % inhibition was then used to calculate the IC50 values.

Structure (SMILES)	IC50 [µM]
O=C1CN(c2c(O)cc3c(c2F)C[C@@H](NCCC2CC2)CC3)S(=O)(=O)N1 (single isomer, unassigned) [Compound 134]	0.01 to 0.1
CO[C@@H]1CCc2cc(O)c(N3CC(=O)NS3(=O)=O)c(F)c2C1 (single isomer, unassigned) [Compound 104]	0.01 to 0.1
CO[C@H]1CCc2cc(O)c(N3CC(=O)NS3(=O)=O)c(F)c2C1 (single isomer, unassigned) [Compound 109]	0.01 to 0.1
CC(C)(CCN[C@H]1CCc2cc(O)c(N3CC(=O)NS3(=O)=O)c(F)c2C1)C(F)(F)F (single isomer, unassigned) [Compound 176]	0.01 to 0.1
O=C1CN(c2c(O)cc3c(c2F)C[C@H](NCCC2CC2)CC3)S(=O)(=O)N1 (single isomer, unassigned) [Compound 133]	0.001 to 0.01
O=C1CN(c2c(O)cc3c(c2F)C[C@@H]([C@H]2CCNC2)CC3)S(=O)(=O)N1 (single isomer, unassigned) [Compound 138]	0.01 to 0.1
CC(C)CCN[C@H]1CCc2cc(O)c(N3CC(=O)NS3(=O)=O)c(F)c2C1 (single isomer, unassigned) [Compound 117]	0.01 to 0.1
O=C1CN(c2c(O)cc3c(c2F)C[C@@H]([C@@H]2CCNC2)CC3)S(=O)(=O)N1 (single isomer, unassigned) [Compound 136]	0.01 to 0.1
O=C1CN(c2c(O)cc3c(c2F)C[C@@H]([C@@H]2CCN(S(=O)(=O)C4CC4)C2)CC3)S(=O)(=O)N1 (single isomer, unassigned) [Compound 137]	0.001 to 0.01
CC(C)(CCN[C@@H]1CCc2cc(O)c(N3CC(=O)NS3(=O)=O)c(F)c2C1)C(F)(F)F (single isomer, unassigned) [Compound 177]	0.001 to 0.01
O=C1CN(c2c(O)cc3c(c2F)C[C@@H](NCCCC(F)(F)F)CC3)S(=O)(=O)N1 (single isomer, unassigned) [Compound 147]	0.01 to 0.1
O=C1CN(c2c(O)cc3c(c2F)C[C@@H]([C@H]2CCN(S(=O)(=O)C4CC4)C2)CC3)S(=O)(=O)N1 (single isomer, unassigned) [Compound 139]	0.01 to 0.1
O=C1CN(c2c(O)cc3c(c2F)C[C@H](NCCC2(C(F)(F)F)CC2)CC3)S(=O)(=O)N1 (single isomer, unassigned) [Compound 148]	< 0.001

Other lines, results leading:

IC50 [µM]	Structure (SMILES)
0.01 to 0.1	O=C1CN(c2c(O)cc3c(c2F)C[C@@H](NCCC(F)F)CC3)S(=O)(=O)N1 (single isomer, unassigned) [Compound 259]
0.001 to 0.01	C[C@@H](O)CCN[C@@H]1CCc2cc(O)c(N3CC(=O)NS3(=O)=O)c(F)c2C1 (single isomer, unassigned) [Compound 307]
0.001 to 0.01	O=C1CN(c2c(O)cc3c(c2F)C[C@H](NCCC(F)F)CC3)S(=O)(=O)N1 (single isomer, unassigned) [Compound 260]
< 0.001	O=C1CN(c2c(O)cc3c(c2F)C[C@H](NCCCC(F)F)CC3)S(=O)(=O)N1 (single isomer, unassigned) [Compound 199]
0.01 to 0.1	CC(C)CCNC[C@H]1Cc2cc(O)c(N3CC(=O)NS3(=O)=O)c(F)c2C1 (single isomer, unassigned) [Compound 292]
0.001 to 0.01	CC(C)CCNC[C@@H]1Cc2cc(O)c(N3CC(=O)NS3(=O)=O)c(F)c2C1 (single isomer, unassigned) [Compound 291]
0.001 to 0.01	CC(C)(CO)CCN[C@@H]1CCc2cc(O)c(N3CC(=O)NS3(=O)=O)c(F)c2C1 (single isomer, unassigned) [Compound 308]
0.001 to 0.01	CC(C)CCCC1CCc2cc(O)c(N3CC(=O)NS3(=O)=O)c(F)c2C1 (stereo not shown) [Compound 323]
0.01 to 0.1	O=C1CN(c2c(O)cc3c(c2F)CN(C[C@H]2C[C@@H]2c2ccncc2)CC3)S(=O)(=O)N1 (racemic) [Compound 248]
